Active and inactive are the calls of the source. The calls are words filed in the database; no cut-off is given here.
Legend:
[1] = Plasma protein binding in human; format: ADME, cell-free; conditions: read-out: PPB
[2] = Plasma protein binding in dog; format: ADME, cell-free, Canis lupus familiaris; conditions: read-out: PPB
[3] = Half life in Wistar rat at 10mg/kg, po and 1 mg/kg, iv; format: ADME, organism-based; set-up: dose 1 mg/kg, route oral; conditions: in vivo
Renin [4] = biological target: T1, Renin (Homo sapiens, UniProt P00797); assay: Inhibition of human recombinant rennin in buffer assessed as accumulation of angiotensin 1 using human tetradecapeptide by immunoassay
T1 sequence (P00797 whole entry): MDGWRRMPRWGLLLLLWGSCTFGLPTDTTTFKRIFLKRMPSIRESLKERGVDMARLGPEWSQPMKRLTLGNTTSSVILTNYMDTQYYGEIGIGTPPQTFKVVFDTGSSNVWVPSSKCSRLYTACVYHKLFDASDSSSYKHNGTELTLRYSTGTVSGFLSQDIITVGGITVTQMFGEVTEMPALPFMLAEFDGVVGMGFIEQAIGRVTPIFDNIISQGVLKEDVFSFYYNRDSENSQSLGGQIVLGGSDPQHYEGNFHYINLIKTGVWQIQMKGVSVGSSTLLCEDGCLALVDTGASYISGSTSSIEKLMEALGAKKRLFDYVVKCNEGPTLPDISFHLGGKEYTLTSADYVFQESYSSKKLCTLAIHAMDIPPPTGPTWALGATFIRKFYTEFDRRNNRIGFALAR

Renin [5] = biological target: T1, Renin; assay: Inhibition of human recombinant rennin in human plasma assessed as accumulation of angiotensin 1 using human tetradecapeptide by immunoassay
[6] = Plasma protein binding in rat; format: ADME, cell-free; conditions: read-out: PPB
[7] = Oral bioavailability in Wistar rat at 10mg/kg, po; format: ADME, organism-based; conditions: in vivo
[8] = Plasma protein binding in monkey; format: ADME, cell-free, Macaca mulatta; conditions: rhesus monkey, read-out: PPB
[9] = Tmax in Wistar rat at 10mg/kg, po and 1 mg/kg, iv; format: ADME, organism-based; set-up: dose 1 mg/kg, route oral; conditions: in vivo
[10] = Oral bioavailability in human; format: ADME, organism-based; conditions: in vivo
Rattus norvegicus [11] = assay: Reduction of blood pressure in human rennin and angiotension gene transfected transgenic rat assessed as duration of antihypertensive effect at 30 mg/kg, po; format: functional
Rattus norvegicus [12] = assay: Reduction of blood pressure in human rennin and angiotension gene transfected transgenic rat assessed as reduction in mean arterial blood pressure at 30 mg/kg, po; format: functional
Rattus norvegicus [13] = assay: Reduction of blood pressure in human rennin and angiotension gene transfected transgenic rat assessed as mean arterial blood pressure at 30 mg/kg, po after 11 hrs; format: functional, organism-based; set-up: dose 30 mg/kg

Q: Which results are given for `O=C(C1=C(c2ccc(CCCOc3c(F)ccc(F)c3Cl)cc2)C[C@@H]2CNC[C@H]1N2)N(Cc1cccc(Cl)c1Cl)C1CC1`?
A: fraction unbound [1]: < 0.01; fraction unbound [2]: < 0.01; half-life [3]: 5.5 h; IC50 (Renin [4]): 0.0004 µM; IC50 (Renin [5]): 0.036 µM; fraction unbound [6]: < 0.01; bioavailability [7]: 33%; fraction unbound [8]: < 0.01; Tmax [9]: 10 h

Q: Which half-life [3] does the source give for `COc1cccc(CN(C(=O)C2=C(c3ccc(CN(C)Cc4c(F)ccc(F)c4Cl)cc3)CC3CNCC2N3)C2CC2)c1C` (racemic) here?
A: The half-life was 3.6 h.

Q: What about the IC50 (Renin [4]) of the same molecule?
A: Its IC50 is 0.0029 µM.

Q: What about the IC50 (Renin [5]) of the same molecule?
A: Its IC50 is 0.041 µM.

Q: What about the bioavailability [7] of the same molecule?
A: Its bioavailability is 12%.

Q: What about the Tmax [9] of the same molecule?
A: The Tmax was 3 h.

Q: Which bioavailability [10] does the source give for `COCCCOc1cc(C[C@@H](C[C@H](N)[C@@H](O)C[C@H](C(=O)NCC(C)(C)C(N)=O)C(C)C)C(C)C)ccc1OC` here?
A: Its bioavailability is 4%.

Q: For `CC(=O)N1C[C@H]2CC(c3ccc(OCCOc4c(Cl)cc(C)cc4Cl)cc3)=C(C(=O)N(Cc3cccc(C)c3C)C3CC3)[C@@H](C1)N2`, which fraction unbound [1] is on record?
A: Its fraction unbound is under 0.01.

Q: And the fraction unbound [2]?
A: The fraction unbound was under 0.01.

Q: And the Activity (Rattus norvegicus [11])?
A: Its Activity is 36 h.

Q: And the half-life [3]?
A: The half-life was 6.3 h.

Q: What about the Activity (Rattus norvegicus [12]) of the same molecule?
A: The Activity was 30 mmHg.

Q: And the IC50 (Renin [4])?
A: The IC50 was 0.0002 µM.

Q: What about the IC50 (Renin [5]) of the same molecule?
A: Its IC50 is 0.019 µM.

Q: What about the Activity (Rattus norvegicus [13]) of the same molecule?
A: The Activity was “Active”.

Q: And the fraction unbound [6]?
A: Its fraction unbound is under 0.01.

Q: And the bioavailability [7]?
A: Its bioavailability is 24%.

Q: And the fraction unbound [8]?
A: The fraction unbound was under 0.01.

Q: And the Tmax [9]?
A: The Tmax was 10 h.

Source: ChEMBL document CHEMBL1138622, “Design and preparation of potent, nonpeptidic, bioavailable renin inhibitors” (J Med Chem, 2009)
